The nature of this test: mitochondrial fusion inhibitors, confirmation, cell-based, chemical genetic, wild-type and mutant (AID 1361). The conditions noted are these: Cell-based mitochondrial fusion phenotype, imaging.
The mark [1] stands for this setting: mutant cells, measured here: mutant cell line IC50.

The source made the active and inactive calls. The rule behind the calls is not given here.

Consider `CCOC(=O)C1CCc2nc3ccccc3c(=O)n21` (centres undefined), for which the IC50 reads like this: (WT cells) > 25 µM (inactive); under setting [1], greater than 25 µM.
Consider `CCCOC(=O)c1ccc(Oc2cn[nH]c2-c2ccc(OC)cc2O)cc1`, for which the IC50 was 11.3 µM (WT cells) and 21.9 µM under setting [1].
For the compound `Fc1ccc(N2CCN(c3nc(CN4CCOCC4)nc4scc(-c5ccccc5)c34)CC2)cc1`, the IC50 (WT cells) was 19.6 µM and the IC50 under setting [1] was determined as 24 µM.
As for `COc1cccc(C2Nc3c(F)cc(Br)cc3C3C=CCC32)c1OC` (centres undefined), the IC50 (WT cells) was 14.9 µM and the IC50 under setting [1] was greater than 25 µM.
Taken in the same sequence, the figures for `O=C1CC(C(=O)NCc2ccccc2)C2(CCCC2)O1` (centres undefined) were > 25 µM (inactive) and greater than 25 µM.
For the compound `Cc1ccc(NNC(=S)Nc2ccc(C(C)C)cc2)c(C)c1`, the IC50 was 15.3 µM (WT cells) and greater than 25 µM under setting [1].
Taken in the same sequence, the figures for `CC(C)(C)c1cc(/C=N/O)cc(C(C)(C)C)c1O` were > 25 µM (inactive) and greater than 25 µM.
As for `CC1CCN(C(C)C(=O)Nc2ccccc2-c2ccccc2)CC1` (centres undefined), the IC50 is, setting by setting: (WT cells) > 25 µM (inactive); under setting [1], greater than 25 µM.
On to `Cc1nc(N2CCCCC2)c2c(C)c(C(=O)Nc3ccccc3C(F)(F)F)sc2n1`, for which the IC50 by setting is: (WT cells) > 25 µM (inactive); under setting [1], greater than 25 µM.
With `Cc1cc(C)cc(NC(=S)NC2CC3CCC(C2)N3Cc2ccco2)c1` (centres undefined), the IC50 is > 25 µM (inactive) (WT cells) and greater than 25 µM under setting [1].
As for `CCN(Cc1ccccc1)C(c1ccc(C(F)(F)F)cc1)c1nnnn1C(C)(C)C` (centres undefined), the IC50 by setting is: (WT cells) 8.69 µM; under setting [1], greater than 25 µM.
In the same order, the values of `CC(=O)Oc1ccccc1N(C(C)=O)S(=O)(=O)c1ccc2ccccc2c1` are > 25 µM (inactive) and greater than 25 µM.
Take `COCCNC(=O)CC(NS(=O)(=O)c1ccc(C)cc1)c1ccco1` (centres undefined): the IC50 (WT cells) is > 25 µM (inactive) and the IC50 under setting [1] is greater than 25 µM.
For the compound `Cc1ccccc1Nc1scc(-c2ccc(Cl)cc2)[n+]1-c1ccccc1C`, the IC50 was 8.24 µM (WT cells) and greater than 25 µM under setting [1].
On to `Cc1cnc(C(=O)OCC(=O)Nc2ccc(Cl)cc2)cn1`, for which the IC50 runs as follows: (WT cells) > 25 µM (inactive); under setting [1], greater than 12.5 µM.
With `CS(=O)(=O)N1CCc2cc(C(=O)N3CCOCC3)ccc21`, the IC50 is, setting by setting: (WT cells) > 25 µM (inactive); under setting [1], greater than 25 µM.
In the case of `COc1ccc(CCNS(=O)(=O)c2ccc(OC)cc2)cc1`, the IC50 is > 25 µM (inactive) (WT cells) and greater than 25 µM under setting [1].
In the case of `N#Cc1c(-c2cccnc2)c2c([nH]c1=S)CCCC2`, the IC50 was > 25 µM (inactive) (WT cells) and greater than 25 µM under setting [1].
As for `CCC(CC)C(=O)c1c[nH]c(C(=O)NCCCN2CCOCC2)c1`, the IC50 (WT cells) is > 25 µM (inactive) and the half-maximal inhibitory concentration (IC50) under setting [1] is greater than 25 µM.
Consider `CCOc1ccccc1N1CCN(C(=S)NC(=O)C23CC4CC(CC(C4)C2)C3)CC1`, for which the half-maximal inhibitory concentration (IC50) was 19.5 µM (WT cells) and 22.5 µM under setting [1].
For `Cc1ccc(C(=O)NCc2ccc(N3CCN(C(=O)OC(C)(C)C)CC3)cc2)cc1`, the IC50 is > 25 µM (inactive) (WT cells) and greater than 25 µM under setting [1].
On to `O=C(OCC(=O)N1CCN(C(=O)c2ccco2)CC1)c1cn(-c2ccccc2)nc1-c1ccccc1`, for which the IC50 is 13.1 µM (WT cells) and 16.3 µM under setting [1].
For the compound `CC(C)=CCc1c(O)c(CC=C(C)C)c2c(c1O)C(=O)CC(c1ccc(O)cc1)O2` (centres undefined), the IC50 by setting is: (WT cells) 10.7 µM; under setting [1], greater than 25 µM.
Taken in the same sequence, the figures for `O=C(NC(=S)Nc1ccc(S(=O)(=O)NC2CCCCC2)cc1)c1cccs1` were 17.6 µM and greater than 25 µM.
On to `CC(=O)C(N=Nc1ccccc1)(Sc1nnc(-c2ccccc2)n1-c1ccccc1)C(C)=O`, for which the IC50 by setting is: (WT cells) 6.6 µM; under setting [1], greater than 25 µM.
Regarding `CNC(=S)N/N=C/c1cccc(OCc2ccccc2F)c1`, the IC50 (WT cells) was > 25 µM (inactive) and the half-inhibitory concentration (IC50) under setting [1] was greater than 25 µM.
`OC1(c2cccc(C(F)(F)F)c2)CCN(c2ncnc3c2[nH]c2ccccc23)CC1`: the IC50 is 18 µM (WT cells) and greater than 25 µM under setting [1].
As for `Cc1c(N2C(=O)c3cccc4cccc(c34)C2=O)c(=O)n(-c2ccccc2)n1C`, the IC50 (WT cells) is > 25 µM (inactive) and the IC50 under setting [1] was greater than 25 µM.
Regarding `COc1cc(NC(=S)NCCC(c2ccccc2)c2ccccc2)cc(OC)c1`, the IC50 by setting is: (WT cells) 4.78 µM; under setting [1], greater than 25 µM.
Taken in the same sequence, the figures for `Cc1nn(-c2ccccc2)c(C)c1NC(=O)c1ccc(S(=O)(=O)N2CCCC2)cc1` were > 25 µM (inactive) and greater than 25 µM.
With `CCn1c(CCCOc2ccc(Cl)cc2Cl)nnc1SCC(=O)Nc1cc(F)ccc1C`, the IC50 is 15.9 µM (WT cells) and greater than 25 µM under setting [1].
For `CC(=O)N(Cc1ccc(F)cc1)C1=C(NCCc2ccccc2)C(=O)c2ccccc2C1=O`, the IC50 is, setting by setting: (WT cells) 24 µM; under setting [1], greater than 25 µM.
Consider `COc1cc2[nH]c(=O)n(CCC(=O)N3CCN(c4cccc(C)c4C)CC3)c(=O)c2cc1OC`, for which the IC50 reads like this: (WT cells) > 25 µM (inactive); under setting [1], greater than 25 µM.
As to `COc1ccc(CNC(=O)C2CC(=O)N(c3ccc(OCC(=O)N4C(C)CCCC4C)cc3)C2)cc1` (centres undefined), the IC50 was > 25 µM (inactive) (WT cells) and greater than 25 µM under setting [1].
In the case of `Cc1ccc(C(=O)/C=C/c2c(C)nn(-c3ccccc3)c2Cl)cc1`, the half-maximal inhibitory concentration (IC50) (WT cells) was 20.2 µM and the IC50 under setting [1] was greater than 25 µM.
`CCCCCCn1c(N)c(C(=O)NCCN2CCOCC2)c2nc3ccccc3nc21`: the IC50 by setting is: (WT cells) > 25 µM (inactive); under setting [1], greater than 25 µM.
Taken in the same sequence, the figures for `Cc1cc(C)cc(NS(=O)(=O)c2ccc(Oc3ncc(C(F)(F)F)cc3Cl)cc2)c1` were 10.9 µM and greater than 25 µM.
Taken in the same sequence, the figures for `N#CC(C#N)=C1C=CC=CN1/C(=C\c1ccccc1Cl)C(=O)c1ccccc1` were 18.6 µM and greater than 25 µM.
Taken in the same sequence, the figures for `CC(NC(=S)NCCCN1CCOCC1)C1CC2CCC1C2` (centres undefined) were > 25 µM (inactive) and greater than 25 µM.
Take `Cc1cccc2sc(NC(=O)c3ccc(NS(=O)(=O)c4cccs4)cc3)nc12`: the IC50 by setting is: (WT cells) > 25 µM (inactive); under setting [1], greater than 25 µM.
Consider `O=C(Nc1cccc(Cl)c1N1CCCC1)c1ccc(Br)o1`, for which the IC50 (WT cells) was 18.1 µM and the IC50 under setting [1] is greater than 25 µM.
Take `C/C(=N\Nc1nc(N2CCCCCC2)nc(N2CCCCCC2)n1)c1ccccc1`: the half-inhibitory concentration (IC50) reads like this: (WT cells) 12.6 µM; under setting [1], greater than 25 µM.
For `Cc1ccc(C(=O)NC(=S)/C=C2\N(C)c3ccccc3C2(C)C)cc1`, the IC50 by setting is: (WT cells) 12 µM; under setting [1], greater than 25 µM.
On to `Cc1cc(NC(=S)N(Cc2ccc(Cl)cc2)Cc2ccc(C(=O)O)cc2)ccc1Cl`, for which the IC50 is 17.6 µM (WT cells) and greater than 25 µM under setting [1].
Regarding `CCOC(=O)C1=C(NC(=S)NC(=O)c2ccccc2)c2ccccc2CC12CCCC2`, the IC50 runs as follows: (WT cells) 6.33 µM; under setting [1], greater than 25 µM.
In the case of `CN(C)C(=O)CSc1nnc(CCCCCNC(=O)OC(C)(C)C)o1`, the IC50 is > 25 µM (inactive) (WT cells) and greater than 25 µM under setting [1].
Consider `CC1CCN(S(=O)(=O)c2ccc(Oc3ccc([N+](=O)[O-])cc3)cc2)CC1`, for which the IC50 by setting is: (WT cells) > 25 µM (inactive); under setting [1], greater than 25 µM.
Regarding `CCCCCC[n+]1c(-c2ccccc2)csc1Nc1ccccc1`, the IC50 is 4.95 µM (WT cells) and 14.8 µM under setting [1].
Consider `CC(=O)N1N=C(c2ccc(C)cc2)OC1c1ccc(Br)cc1` (centres undefined), for which the IC50 (WT cells) was 21 µM and the IC50 under setting [1] is greater than 25 µM.
As for `C/C1=C\[C@@H](C)C/C=C/[C@H]2[C@@H]3O[C@]3(C)[C@@H](C)[C@H]3[C@H](Cc4c[nH]c5ccccc45)NC(=O)[C@]32C(=O)/C=C/C(=O)[C@@H]1O`, the IC50 by setting is: (WT cells) 19 µM; under setting [1], greater than 25 µM.
In the same order, the values of `CCCCNC(=S)N(C)/N=C/c1ccc2c(c1)OCO2` are 25 µM (inactive) and greater than 25 µM.
Consider `CCOC(=O)c1c(C)[nH]c(C)c1C(=O)COC(=O)/C=C/c1cccc(C(F)(F)F)c1`, for which the IC50 (WT cells) is 20.6 µM and the IC50 under setting [1] is greater than 25 µM.
Turning to `Cc1ccc2nc(SC(C(=O)Nc3ccc(F)cc3)c3ccccc3)[nH]c2c1` (centres undefined), the IC50 runs as follows: (WT cells) > 25 µM (inactive); under setting [1], greater than 25 µM.
For `Cc1nc(=O)c(-c2ccccc2)c(C)n1CCCCCC(=O)O`, the IC50 runs as follows: (WT cells) > 25 µM (inactive); under setting [1], greater than 25 µM.
For the compound `FC(F)(F)c1ccc(Oc2ccc3ccccc3c2Br)nc1`, the IC50 is > 25 µM (inactive) (WT cells) and greater than 12.5 µM under setting [1].
Taken in the same sequence, the figures for `O=C(CCCCCN1C(=O)c2ccccc2C1=O)Nc1ccc(S(=O)(=O)N2CCCCC2)cc1` were > 25 µM (inactive) and greater than 12.5 µM.
Take `CC1=CN2C(=N)/C(=C/c3ccc(Sc4ccc(C)cc4)o3)C(=O)N=C2S1`: the IC50 is, setting by setting: (WT cells) 7.68 µM; under setting [1], greater than 25 µM.
As to `COc1ccc(Cc2nn[nH]n2)cc1`, the IC50 is > 25 µM (inactive) (WT cells) and greater than 25 µM under setting [1].
In the case of `Cc1ccc(NC(=S)N(CCCN2CCCC2)Cc2cccn2Cc2ccc(Cl)cc2)cc1C`, the IC50 reads like this: (WT cells) 13.1 µM; under setting [1], greater than 25 µM.
In the same order, the values of `CC1CCN(c2nc(Cl)nc(Nc3ccc([N+](=O)[O-])cc3)n2)CC1` are 7.41 µM and greater than 25 µM.
`CCn1cc(C(=O)OCC(=O)c2cc(C)n(-c3cccc(C(F)(F)F)c3)c2C)c(=O)c2ccc(C)nc21`: the half-inhibitory concentration (IC50) (WT cells) was 11.1 µM and the IC50 under setting [1] is greater than 25 µM.
In the case of `COc1ccc(-c2cn[nH]c2-c2ccc(OCc3ccc([N+](=O)[O-])cc3)cc2O)cc1`, the concentration for half-maximal inhibition (IC50) is, setting by setting: (WT cells) 10 µM; under setting [1], greater than 25 µM.
As to `COc1cccc(C2=CC(c3ccccc3)n3nnnc3N2)c1` (centres undefined), the IC50 by setting is: (WT cells) > 25 µM (inactive); under setting [1], greater than 25 µM.
Taken in the same sequence, the figures for `CSc1ccc(OC2CCCCC2NS(=O)(=O)c2ccc(Cl)cc2)cc1` (centres undefined) were 16.2 µM and greater than 25 µM.
Take `CC(C)CNC(=S)N1CCN(C(c2ccccc2)c2ccccc2)CC1`: the IC50 was 14.7 µM (WT cells) and greater than 25 µM under setting [1].
Regarding `Cc1oc(-c2ccccc2F)nc1CN1CCC(C(=O)NCCC2=CCCCC2)CC1`, the IC50 (WT cells) is > 25 µM (inactive) and the IC50 under setting [1] was greater than 25 µM.
As for `CC(=O)Nc1sc2c(c1C(c1ccc(Cl)cc1)N1CCOCC1)CCCC2` (centres undefined), the 50% inhibitory concentration (IC50) by setting is: (WT cells) 13 µM; under setting [1], greater than 25 µM.

The values are drawn from PubChem BioAssay AID1361 (SRMLSC, 2008).
